Data taken from patent US7884124B2, “Fluoro-substituted inhibitors of D-amino acid oxidase” (Sepracor Inc., priority 2006, dated 2011).

How the values were obtained:
Chung model rats = test: Chung model (L5 spinal nerve ligation), paw withdrawal threshold with von Frey hairs; type: in vivo, rat
Experimental: Adult male Sprague-Dawley rats, weighing 200-230 g at the time of surgery, were used. They were housed in groups of 4 in an air-conditioned room on a 12 h light/dark cycle. Food and water were available ad libitum. The animals were allowed to acclimatize to the experimental environment for three days by leaving them on a lifted metal mesh for at least 40 min. The baseline paw withdrawal threshold (PWT) was examined using a series of graduated von Frey hairs for 3 consecutive days before surgery and re-assessed on the 7th day after surgery and on the 11th to 14th day before drug dosing. The rat Chung model was prepared as described by Kim and Chung (1992). The rat was anaesthetized with 5% isoflurane mixed with oxygen (2 L per min) followed by an i.p. injection of sodium pentobarbitone at 50 mg/kg. The back was shaved and sterilized with 75% ethanol. The animal was placed in a prone position and a para-medial incision was made on the skin covering L4-6 level. The L5 spinal nerve was carefully isolated and tightly ligated with 6/0 silk suture. The wound was then closed in layers after a complete hemostasis. A single dose of antibiotics (Amoxipen 15 mg/rat, ip) was routinely given for prevention of infection after surgery. The animals were placed in a temperature controlled recovery chamber until fully awake before being returned to the home cage. The animals were placed in individual Perspex boxes on a raised metal mesh for at least 40 min before the test. Starting with the filament of lowest force, each filament was applied perpendicularly to the centre of the ventral surface of the paw until slightly bent for 6 seconds. If the animal withdrew or lifted the paw upon stimulation, then a hair with force immediately lower than that tested was used. If no response was observed, then a hair with force immediately higher was tested. The lowest amount of force required to induce reliable responses (positive in 3 out of 5 trials) was recorded as the value of PWT. Only those animals with significant allodynia (PWT≦3.5 g) were selected for drug dosing experiments. The rats in a neuropathic pain state were randomly divided into experimental groups: Vehicle group and 1 group had 8 rats and the gabapentin group had 9 rats. The drug test was carried out 12 to 14 days after surgery. Isotonic 50 mM phosphate buffer (PB), dosed orally at 3 mL/kg, served as the vehicle control. Gabapentin was dissolved in normal saline and given orally at 100 mg/kg. […] The PWT was assessed at 1, 3, 6 and 24 h following drug or vehicle administration. The animals were returned to their home cage for a break (about 30 min) between two neighboring testing time points. One-way analysis of variance (ANOVA) (SPSS software) was used for statistical analysis to compare different groups on the same time points. Paired Student-t test was used to compare different time points in the same group. The significance level was set at P<0.05.

C57BL/6 male mice = test: Contextual fear conditioning (freezing 24 hours after training); type: in vivo
From the text: Young-adult C57BL/6 male mice were used. Mice were received at 6-7 weeks of age. Upon arrival, mice were assigned unique identification numbers (tail marked) and were group housed in polycarbonate cages with filter tops. All mice were acclimated to the colony room for at least four weeks prior to testing and were subsequently tested at an average age of 10-12 weeks of age. During the period of acclimation, mice were examined on a regular basis, handled, and weighed to assure adequate health and suitability. Mice were maintained on a 12/12 light/dark cycle with the light on at 6:00 a.m. The experiments were always conducted during the light phase of the cycle. The day before the initiation of the experiment, mice were housed single in individual cages and maintained so till the end of the experiment. Animals were randomly assigned across treatment groups. With the exception of testing times, the mice had ad lib access to food and water. Rolipram (0.1 mg/kg) was dissolved in 1% DMSO i.p. 20 min prior to training at a dose volume of 8 ml/kg. To assess contextual conditioning, we use a standardized contextual fear conditioning task originally developed for evaluation of memory in CREB mutant mice (Bourtchouladze, R. et al.; Cell 1994, 79, 59-68). Specifically, on the training day, the mouse is placed into the conditioning chamber for 2 minutes before the onset of the unconditioned stimulus (US), a 0.75 mA foot shock of 2 seconds duration. The US is repeated two times with a 1 min inter-trial interval between shocks. Training is performed using an automated software package. After the last training trial, a mouse is left in the conditioning chamber for another 30 sec and then placed back in its home cage. Contextual memory is tested 24 hours after training. The mouse is placed into the same training chamber and conditioning is assessed by scoring freezing behavior. Freezing is defined as the complete lack of movement in intervals of 5 seconds (Kim et al., 1993; Phillips & LeDoux, 1992; Bourtchouladze et al., 1994; 1998; Abel et al., 1997; Kogan et al., 1997). […]

Compound: O=C(O)c1cc2sccc2[nH]1 [Compound 1, 4H-thieno[3,2-b]pyrrole-5-carboxylic acid]
- PWT, ipsilateral side (Chung model rats; 30 mg/kg orally, 1 hour after dosing, before dosing 1.25±0.18 g): 2.50 ± 0.33 g
- PWT, contralateral side (Chung model rats; 30 mg/kg orally, 1 hour after dosing, pre-drug level 8.80±0.13 g): 8.15 ± 0.45 g
- PWT, ipsilateral side (Chung model rats; 30 mg/kg orally, 3 hours after dosing, before dosing 1.25±0.18 g): 4.44 ± 0.27 g
- PWT, contralateral side (Chung model rats; 30 mg/kg orally, 3 hours after dosing, pre-drug level 8.80±0.13 g): 8.90 ± 0.15 g
- PWT, ipsilateral side (Chung model rats; 30 mg/kg orally, 6 hours after dosing, before dosing 1.25±0.18 g): 5.71 ± 0.66 g
- PWT, contralateral side (Chung model rats; 30 mg/kg orally, 6 hours after dosing, pre-drug level 8.80±0.13 g): 9.70 ± 0.77 g
- PWT, ipsilateral side (Chung model rats; 30 mg/kg orally, 24 hours after dosing, before dosing 1.25±0.18 g): 1.90 ± 0.38 g
- PWT, contralateral side (Chung model rats; 30 mg/kg orally, 24 hours after dosing, pre-drug level 8.80±0.13 g): 8.35 ± 0.50 g
- Time after dosing at which the effect on PWT reached a peak (Chung model rats; 30 mg/kg orally, ipsilateral side): 6 h
- Activity in contextual fear conditioning (C57BL/6 male mice; 10 mg/kg P.O.): active

Compound: O=C(O)c1cc2occc2[nH]1 [Compound 11, 4H-furo[3,2-b]pyrrole-5-carboxylic acid]
- Effect on PWT (Chung model rats; oral dose of 10 mg/kg): significantly elevated the PWT
- Time after dosing at which the effect on PWT reached a peak (Chung model rats; oral dose of 10 mg/kg): 6 h
- Time after dosing at which the increase in PWT was first observed (Chung model rats; oral dose of 10 mg/kg): 1 h
- Freezing 24 hours after training (C57BL/6 male mice; 10 mg/kg p.o. 2 hrs prior to training, vehicle 33.3%+/−5.1%, n=10): 69.7%+/−3.0%

Compound: NCC1(CC(=O)O)CCCCC1 [Gabapentin, reference compound]
- PWT, ipsilateral side (Chung model rats; gabapentin 100 mg/kg orally, 1 hour after dosing, before dosing 1.48±0.22 g): 3.77 ± 0.42 g
- PWT, contralateral side (Chung model rats; gabapentin 100 mg/kg orally, 1 hour after dosing, before dosing 9.67±0.68 g): 10.11 ± 0.93 g
- PWT, ipsilateral side (Chung model rats; gabapentin 100 mg/kg orally, 3 hours after dosing, before dosing 1.48±0.22 g): 6.27 ± 0.76 g
- PWT, contralateral side (Chung model rats; gabapentin 100 mg/kg orally, 3 hours after dosing, before dosing 9.67±0.68 g): 10.11 ± 0.93 g
- PWT, ipsilateral side (Chung model rats; gabapentin 100 mg/kg orally, 6 hours after dosing, before dosing 1.48±0.22 g): 2.38 ± 0.29 g
- PWT, contralateral side (Chung model rats; gabapentin 100 mg/kg orally, 6 hours after dosing, before dosing 9.67±0.68 g): 8.29 ± 0.42 g
- PWT, ipsilateral side (Chung model rats; gabapentin 100 mg/kg orally, 24 hours after dosing, before dosing 1.48±0.22 g): 2.69 ± 0.60 g
- PWT, contralateral side (Chung model rats; gabapentin 100 mg/kg orally, 24 hours after dosing, before dosing 9.67±0.68 g): 9.40 ± 0.71 g
- Time after dosing at which the effect on PWT reached a peak (Chung model rats; gabapentin orally dosed at 100 mg/kg): 3 h
- Effect on PWT (Chung model rats; gabapentin orally dosed at 100 mg/kg, positive control): significantly increased the PWT

Compound: COc1ccc(C2CNC(=O)C2)cc1OC1CCCC1 (stereo not shown) [Rolipram, reference compound]
- Freezing 24 hours after training (C57BL/6 male mice; Rolipram 0.1 mg/kg i.p. 20 min prior to training, vehicle 27.2%+/−3.6%): 44.4%+/−4.4%
